Measured values from patent US20220275371A1, “USE OF RAB7 GTPASE (RAB7) INHIBITORS IN ENHANCING PERMEABILITY OF THE BLOOD BRAIN BARRIER (BBB)” (Children's Medical Center Corporation, priority 2019, published 2022).
Counter-ions that a name gives are not always drawn.

Key:
Format in all cases: cell-based, human
[1] = tested on: astrocytes; experiment: TdTom-EV uptake by astrocytes with endocytosis inhibitors (flow cytometry); conditions: 30 min pretreatment: chlorpromazine 20 μM, EIPA 50 μM, filipin III 10 μM, ML141 100 μM, CAS 1177865-17-6 10 μM; 3 hours with EVs
Source text: To elucidate the mechanisms underlying the uptake of breast cancer-derived EVs by astrocytes, the possibility of the involvement of specific endocytosis mechanism(s) in this uptake was explored. Endocytic pathways such as macropinocytosis, clathrin-dependent and caveolin-dependent endocytosis have been commonly reported to be involved in the uptake of EVs by different cell types^16.
Next, the role of clathrin-caveolin-independent pathways in EV uptake was explored, focusing on rac1 and Cdc42, two major players in this process^17.
To evaluate the uptake of EVs by astrocytes for endocytosis inhibition studies, astrocytes were treated with chlorpromazine hydrochloride (Millipore Sigma, Cat #C8138, 20 μM), 5-(N-Ethyl-N-isopropyl) amiloride (EIPA) (50 μM, Tocris, Cat #3378), and filipin III (10 μM, Millipore Sigma, Cat #F4767), CDC42/Rac1 inhibitor, ML141 (100 μM, Millipore Sigma, Cat #217708), and rac1 inhibitor, CAS 1177865-17-6 (10 μM, Millipore Sigma, Cat #553502) for 30 min.

[2] = tested on: brain endothelial monolayer; experiment: Static Transwell BBB model, transport of Gaussia luciferase-labeled Br-EVs; conditions: 30 min pretreatment, then Br-EVs 2 hours at 37° C.
Protocol: To verify that the source of the detected signal in the abluminal chamber was the luciferase associated with intact EVs as opposed to free luciferase, the media from the lower chamber was ultracentrifuged on an iodixanol OPTIPREP™ density gradient. As a positive control, Gaussia luciferase-labeled Br-EVs were added directly to the top of a gradient for ultracentrifugation.
To evaluate the effect of temperature, filters were incubated at either 4° C. or 37° C. To evaluate the effect of endocytosis, filters were pretreated with Dynasore hydrate (Millipore Sigma, Cat #D7693) for 30 minutes prior to adding the EVs and then incubated at 37° C. The media from the lower chamber was collected after 2 hours and luminescence intensity was measured as described before. […] After 4 hours of ultracentrifugation, different density fractions were isolated and luminescence intensity was measured for each fraction. […] After 2 hours of incubation, the permeability of the filters to 10 KDa ALEXA FLUOR™ 647 Dextran and 70 KDa FITC-dextran was measured as described above.

[3] = tested on: brain endothelial cells; experiment: TdTom-Br-EV uptake by brain endothelial cells with endocytosis inhibitors (flow cytometry); conditions: 30 min pretreatment: chlorpromazine 20 μM, ML141 100 μM, EIPA 100 μM, cytochalasin D 500 nM, filipin III 10 μM; 3 hours with EVs
Source text: The mechanistic details of Br-EV transport was further explored through brain endothelial cells by focusing on the three major steps of transcytosis: 1) endocytosis through the apical (luminal) membrane of brain endothelial cells, 2) transfer through the endocytic pathway, and 3) release into the extracellular environment from the basolateral (abluminal) membrane. To evaluate the mechanism(s) of uptake, brain endothelial cells were pretreated with chemical inhibitors of the different endocytosis pathways and measured the uptake of TdTom-Br-EVs via flow cytometry.
To evaluate the uptake of EVs by brain ECs, astrocytes and pericytes, cells grown to confluence in 96-well plates were incubated with 2×10^9 particle/well of tdTomato P- and Br-EVs. After 2 hours of incubation, cells were washed for 3 times and were fixed for imaging. Images from four different fields were taken using a Zeiss Fluorescent microscope and the level of fluorescence intensity was analyzed using the ImageJ software. To eliminate the confounding effect of cell size on the uptake level, fluorescent intensity for tdTom-EVs was measured per unit of cell surface area. For endocytosis inhibition studies, brain ECs cultured in 12-well plates were treated with chlorpromazine hydrochloride (Millipore Sigma, Cat #C8138, 20 μM), ML141 (100 μM, Millipore Sigma, Cat #217708), 5-(N-Ethyl-N-isopropyl) amiloride (EIPA) (100 μM, Tocris, Cat #3378), cytochalasin D (500 nM, Tocris, Cat #1233), and filipin III (10 μM, Millipore Sigma, Cat #F4767) for 30 minutes prior to addition of TdTom-Br-EVs (10^10 particle/well). Following 3 hours of incubation with EVs, cells were washed and EV uptake was measured by flow cytometry using a BD FACSCalibur flow cytometer (BD Biosciences, San Jose, Calif.).

Row | Structure (SMILES) | uptake of breast cancer-derived EVs by astrocytes [1] | abluminal signal of Br-EV transport [2] | uptake of Br-EVs by brain endothelial cells [3]
1 | CCN(CC)CCCC(C)Nc1nc(C)cc(Nc2ccc3nc(C)cc(N)c3c2)n1.Cl.Cl.Cl (centres unmarked) [CAS 1177865-17-6] | no effect | – | –
2 | O=C(N/N=C/c1ccc(O)c(O)c1)c1cc2ccccc2cc1O [Dynasore] | – | dose-dependent decrease | –
3 | CCN(c1nc(N)c(C(=O)N=C(N)N)nc1Cl)C(C)C [EIPA, 5-(N-Ethyl-N-isopropyl) amiloride] | did not affect | – | significant decrease
4 | CCCCC[C@@H](O)[C@H]1C(=O)O[C@H](C)[C@@H](O)/C=C/C=C/C=C/C=C/C=C(\C)[C@@H](O)C[C@H](O)C[C@H](O)C[C@H](O)C[C@H](O)C[C@H](O)C[C@@H]1O [Filipin, filipin III] | did not affect | – | no effect
5 | COc1ccc(C2=NN(c3ccc(S(N)(=O)=O)cc3)C(c3ccccc3)C2)cc1 (centres unmarked) [ML141] | significantly decreased | – | significantly decreased
6 | CN(C)CCCN1c2ccccc2Sc2ccc(Cl)cc21 [chlorpromazine, chlorpromazine hydrochloride] | did not affect | – | significantly decreased
7 | C=C1[C@@H](C)[C@H]2[C@H](Cc3ccccc3)NC(=O)[C@]23[C@H](OC(C)=O)/C=C/[C@@](C)(O)C(=O)[C@@H](C)C/C=C/[C@H]3[C@@H]1O [cytochalasin D] | – | – | significant decrease
